From article PMC7767178 (International Journal of Molecular Sciences, 2020)
Where two headings read alike, the source gives them in different places. Positions of bridges follow the written chain, without caps; N, C: chain ends. Residues, ends and D or L forms follow the SMILES beside them.

Legend:
A. veronii ACCC61732 [1] = experiment: Post-antibiotic effect (PAE); assay type: cell-based; settings: for PAE: 2 h exposure, 1000-fold dilution, 37 °C, triplicate; for PAEs, range over 1×–4× MIC: 1× to 4× MIC
Experimental: The samples were taken from flasks for counting each hour until bacterial cultures became turbid. The untreated bacteria severed as controls. The PAE was calculated using the following equation: PAE = T − C, where T is the time (h) required for the CFU in the test culture to increase by 10-fold from the count immediately after the drug removal and C is the corresponding time (h) for the control. The experiment was performed in triplicate.

Escherichia coli CVCC195 = experiment: microbe, parasite or virus in culture; assay type: cell-based; settings: Escherichia coli CVCC195, broth dilution, 37 °C, 16–18 h, three experiments
From the text: (§1) All experiments were repeated three times.

E. coli CVCC1515 = experiment: microbe, parasite or virus in culture; assay type: cell-based
From the text: as §1

E. coli CVCC25922 = experiment: microbe, parasite or virus in culture; assay type: cell-based; settings: E. coli CVCC25922, broth dilution, 37 °C, 16–18 h, three experiments
From the text: as §1

[2] = test system: Staphylococcus aureus ATCC43300; experiment: microbe, parasite or virus in culture; assay type: cell-based
From the text: as §1

S. pullorum CVCC533 = experiment: microbe, parasite or virus in culture; assay type: cell-based
From the text: as §1

S. pullorum CVCC1809 = experiment: microbe, parasite or virus in culture; assay type: cell-based; settings: S. pullorum CVCC1809, broth dilution, 37 °C, 16–18 h, three experiments
From the text: as §1

S. enteritidis CVCC3377 = experiment: microbe, parasite or virus in culture; assay type: cell-based
From the text: as §1

A. veronii X-1-06909 = experiment: microbe, parasite or virus in culture; assay type: cell-based
From the text: as §1

S. pullorum CVCC1789 = experiment: microbe, parasite or virus in culture; assay type: cell-based
From the text: as §1

[3] = test system: Candida albicans CMCC98001; experiment: microbe, parasite or virus in culture; assay type: cell-based
From the text: as §1

A. veronii ACCC61732 [4] = experiment: Time-killing curves; assay type: cell-based; settings: 2× MIC; 1 × 10^5 CFU/mL, colony counting, 0–24 h
Experimental: Time-killing curves were performed as previously described. […] The sample of 100 μL was taken from each flask at 0, 0.5, 1, 2, 4, 6, 8, 10, 20, and 24 h, respectively, and serially diluted for colony counting. PBS and CIP were used as the negative and positive control, respectively.

A. veronii ACCC61732 [5] = experiment: Mouse peritonitis model, bacterial translocation to organs; assay type: in vivo, ICR mice; settings: 5 μmol/kg, 24 h post-treatment, colony counting
Experimental: Sera and organs (livers, kidneys, spleens, and lungs) were collected from the mice at 24 h post-treatment. The organs were homogenized in sterile PBS to evaluate bacterial translocation by colony counting. The levels of cytokines (TNF-α, IL-1β, IL-6, and IL-10) in sera were detected using the ELISA kits.

E. coli CVCCO157 = experiment: MIC, microtiter broth dilution; assay type: cell-based; settings: 37 °C, 16–18 h, three experiments
From the text: as §1

A. veronii ACCC61732 [6] = experiment: Resistance development, 30 serial passages; assay type: cell-based; settings: A. veronii ACCC61732, 30 passages (30 days)
Experimental: The development of bacterial resistance of peptides was performed by the MIC assays. […] GEN, CIP, and PMB were used as controls. […] The MIC values were measured as described above. The serial passaging was repeated for 30 days.

A. veronii CL0901 = test system: A. veronii CL0901
Experimental: (§2) Briefly, the tested strains including Gram-negative bacteria, Gram-positive bacteria, and fungi were cultured to the logarithmic growth phase, diluted to 10^5 CFU/mL, and added into 96-well plates (90 μL/well). Two-fold serial dilutions of peptides or antibiotics dissolved in PBS were added to each well (10 μL/well). […] All experiments were repeated three times.

S. hyicus NCTC10350 = test system: S. hyicus NCTC10350
Experimental: as §2

[7] = test system: A. veronii ACCC61732 in biofilm; assay type: cell-based; settings: 2 h
Experimental: The mid-log phase A. veronii ACCC61732 cells (1 × 10^8 CFU/mL) were inoculated into in the 96-well plates and cultured for 24 h at 37 °C. The plates were washed twice with PBS. […] PBS was used as the negative control. The plates were treated with ultrasound for 5 min and the viable bacteria were counted on the TSA plates.

A. veronii ACCC61732 [8] = experiment: microbe, parasite or virus in culture; assay type: cell-based; settings: checkerboard, by FICI
From the text: The checkerboard microtiter assay was used to determine the combinations of peptides with different antibiotics (including quinolone, rifamycin, peptide antibiotics, aminoglycoside, tetracycline, and chloramphenicol). […] The fractional inhibitory concentration (FIC) was used to calculate the combination effects using the following formula: FIC index (FICI) = MIC(peptide in combination)/MIC(peptide alone) + MIC(antibiotic in combination)/MIC(antibiotic alone). FICI ≤ 0.5 means synergistic, 0.5 < FICI ≤ 1 means additive action, 1 < FICI ≤ 4 means indifference, and FICI > 4 means antagonism.

MDR A. veronii ACCC61732 = experiment: Mouse peritonitis model, survival; assay type: in vivo, ICR mice; settings: 5 μmol/kg i.p. 0.5 h after infection, seven days, six mice
Experimental: […]. The mice injected with only bacteria or saline served as the negative and blank control. The mouse survival was recorded daily for seven days.

[9] = E. coli CVCC1515, broth dilution, 37 °C, 16–18 h, three experiments
[10] = Staphylococcus aureus ATCC43300, broth dilution, 37 °C, 16–18 h, three experiments
[11] = S. pullorum CVCC533, broth dilution, 37 °C, 16–18 h, three experiments
[12] = S. enteritidis CVCC3377, broth dilution, 37 °C, 16–18 h, three experiments
[13] = A. veronii X-1-06909, broth dilution, 37 °C, 16–18 h, three experiments
[14] = S. pullorum CVCC1789, broth dilution, 37 °C, 16–18 h, three experiments
[15] = A. veronii CL0901, broth dilution, 37 °C, 16–18 h, three experiments
[16] = S. hyicus NCTC10350, broth dilution, 37 °C, 16–18 h, three experiments

| SMILES | PAE (A. veronii ACCC61732 [1]; 1× MIC) [h] | PAEs, range over 1×–4× MIC (A. veronii ACCC61732 [1]) [h] | PAE (A. veronii ACCC61732 [1]; 2× MIC) [h] | PAE (A. veronii ACCC61732 [1]; 4× MIC) [h] | MIC (Escherichia coli CVCC195) [µg/mL] | MIC (E. coli CVCC1515; CVCC1515, read-out: MIC) [µM] | MIC (E. coli CVCC1515; [9]) [µg/mL] | MIC (E. coli CVCC25922) [µg/mL] | MIC ([2]; ATCC43300, read-out: MIC) [µM] | MIC [2, 10] [µg/mL] | MIC (S. pullorum CVCC533; [11]) [µg/mL] | MIC (S. pullorum CVCC1809) [µg/mL] | MIC (S. enteritidis CVCC3377; CVCC3377, read-out: MIC) [µM] | MIC (S. enteritidis CVCC3377; [12]) [µg/mL] | MIC (A. veronii X-1-06909; [13]) [µg/mL] | MIC (A. veronii X-1-06909; read-out: MIC) [µM] | MIC (S. pullorum CVCC1789; CVCC1789, read-out: MIC) [µM] | MIC (S. pullorum CVCC1789; [14]) [µg/mL] | MIC ([3]; CMCC98001, read-out: MIC) [µM] | time to completely kill A. veronii ACCC61732 (A. veronii ACCC61732 [4]) | other results |
| --- | --- | --- | --- | --- | --- | --- | --- | --- | --- | --- | --- | --- | --- | --- | --- | --- | --- | --- | --- | --- | --- |
| CC(C)[C@@H]1NC(=O)CNC(=O)[C@H](CC(N)=O)NC(=O)[C@H](CCCNC(=N)N)NC(=O)[C@H](Cc2ccc(O)cc2)NC(=O)[C@H](C(C)C)NC(=O)[C@@H](NC(=O)[C@@H](NC(=O)[C@H](CC(N)=O)NC(=O)[C@H](Cc2c[nH]c3ccccc23)NC(=O)[C@H](C)NC(=O)[C@H](Cc2ccccc2)NC(=O)CN)C(C)C)CSSC[C@@H](C(=O)N[C@@H](Cc2cnc[nH]2)C(=O)N[C@@H](CCCNC(=N)N)C(=O)N[C@@H](CCCNC(=N)N)C(=O)N[C@@H](C)C(=O)N[C@@H](CC(N)=O)C(N)=O)NC(=O)[C@H](C(C)C)NC(=O)[C@H](CCCNC(=N)N)NC1=O [N6NH2] | 0.69 ± 0.01 | 0.69 to 1.17 | 0.7 ± 0.01 | 1.17 ± 0.22 | 4 | 0.81 | 2 | 4 | 6.46 | 16 | 4 | 4 | 0.81 | 2 | 32 | 12.9 | 3.23 | 8 | >52 | 8 h | reduction of bacteria in kidneys (A. veronii ACCC61732 [5]): 80.52%; reduction of bacteria in livers (A. veronii ACCC61732 [5]): 72.94%; reduction of bacteria in lungs (A. veronii ACCC61732 [5]): 71.89%; reduction of bacteria in spleens (A. veronii ACCC61732 [5]): 77.86%; MIC (E. coli CVCCO157): 4 µg/mL; increase of MIC after 30 serial passages (A. veronii ACCC61732 [6]): one-fold; MIC (A. veronii CL0901): 6.46 µM; MIC (A. veronii CL0901; [15]): 16 µg/mL; MIC (S. hyicus NCTC10350; NCTC10350): 12.9 µM; MIC (S. hyicus NCTC10350; [16]): 32 µg/mL; bacteria in biofilm killed [7]; 8: 65.49%; bacteria in biofilm killed [7]; 16: 75.36%; interaction with polymyxin B (PMB) (A. veronii ACCC61732 [8]): synergic effect; interaction with rifampicin, streptomycin sulfate, doxycycline hyclate, and kanamycin sulfate (A. veronii ACCC61732 [8]): additive effects |
| CC(C)[C@H](N)C(=O)N[C@@H](Cc1ccccc1)C(=O)N[C@@H](C)C(=O)N[C@@H](Cc1c[nH]c2ccccc12)C(=O)N[C@@H](CC(N)=O)C(=O)N[C@H](C(=O)N[C@H]1CSSC[C@@H](C(=O)N[C@@H](Cc2c[nH]cn2)C(=O)N[C@@H](CCCNC(=N)N)C(=O)N[C@@H](CCCNC(=N)N)C(=O)N[C@@H](C)C(=O)N[C@@H](CC(N)=O)C(N)=O)NC(=O)[C@H](C(C)C)NC(=O)[C@H](CCCNC(=N)N)NC(=O)[C@H](C(C)C)NC(=O)[C@H](C(C)C)NC(=O)[C@H](CC(N)=O)NC(=O)[C@H](CCCNC(=N)N)NC(=O)[C@H](Cc2ccc(O)cc2)NC(=O)[C@H](C(C)C)NC1=O)C(C)C [V112N6NH2] (H-VFAWNVCVYRNVVRVCHRRAN-NH2; disulfide 7-16 (inferred)) | 0.74 ± 0.02 | 0.74 to 2.15 | 1.48 ± 0.05 | 2.15 ± 0.13 | 8 | 1.56 | 4 | 8 | 12.5 | 32 | 16 | 8 | 0.78 | 2 | 32 | 12.51 | 6.25 | 16 | >50.02 | unable completely kill | MIC (Escherichia coli CVCC195; read-out: MIC): 3.13 µM; MIC (E. coli CVCC25922; read-out: MIC): 3.13 µM; MIC (S. pullorum CVCC533; CVCC533, read-out: MIC): 6.25 µM; MIC (S. pullorum CVCC1809; read-out: MIC): 3.13 µM; MIC ([3]; Candida albicans CMCC98001, broth dilution, 37 °C, 16–18 h, three experiments): >128 µg/mL; reduction of bacteria in kidneys (A. veronii ACCC61732 [5]): 63.42%; reduction of bacteria in livers (A. veronii ACCC61732 [5]): 52.71%; reduction of bacteria in lungs (A. veronii ACCC61732 [5]): 83.57%; reduction of bacteria in spleens (A. veronii ACCC61732 [5]): 63.87%; MIC (E. coli CVCCO157): 8 µg/mL; MIC (E. coli CVCCO157; read-out: MIC): 3.13 µM; increase of MIC after 30 serial passages (A. veronii ACCC61732 [6]): one-fold; MIC (A. veronii CL0901): 12.51 µM; MIC (A. veronii CL0901; [15]): 32 µg/mL; MIC (S. hyicus NCTC10350; NCTC10350): 25.01 µM; MIC (S. hyicus NCTC10350; [16]): 64 µg/mL; bacteria in biofilm killed [7]; 8: 46.21%; bacteria in biofilm killed [7]; 16: 52.04%; survival rate of mice (MDR A. veronii ACCC61732): 66.67% |
